{"source": "patent US7786297B2", "about": "“Purified form of tanaproget” (Wyeth LLC, priority 2005, dated 2010)", "experiment": "storage stability of purified tanaproget Form I (polymorph conversion)", "type": "physicochemical", "conditions": "storage of purified tanaproget Form I alone or in combination with other agents/excipients"}
{"smiles": "Cn1c(C#N)ccc1-c1ccc2c(c1)C(C)(C)OC(=S)N2", "note": "[purified tanaproget Form I, 5-(4,4-dimethyl-2-thioxo-1,4-dihydro-2H-3,1-benzoxazin-6-yl)-1-methyl-1H-pyrrole-2-carbonitrile]", "values": [{"measurement": "stability / conversion to another polymorph during storage", "result": "stable and less likely to convert to another polymorph during storage"}]}
